Among the data in PubChem BioAssay AID743336 (Broad Institute, 2014) are AC40 and rescue activity values, retold here.

Records with an inconclusive call do not appear. The source made the active and inactive calls.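 The calls were made as follows: active = fitted curve of rescue activity rises past 40% within the tested concentration range, in every replicate run; inconclusive = replicate runs disagree, some active and some not; inactive = all replicate runs inactive, including effects in the opposite direction.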

The test system of the first experiment is C2C12 myotubes + simvastatin, ATP luminescence, 48 h. The experiment can be described thus: rescue of simvastatin myotoxicity in C2C12 – cell-based, differentiated C2C12, luminescence, dry powder, dose response (AID 743336).
Settings: not given
For `C[C@H]1CN([C@@H](C)CO)C(=O)c2cc(NC(=O)Nc3cccc4ccccc34)ccc2O[C@H]1CN(C)Cc1ccc(C(=O)Nc2ccccc2N)cc1`, the AC40 was 13.5 µM. On to `N#C[C@@H]1[C@@H](c2ccccc2)[C@H](CO)N1S(=O)(=O)c1ccc(-c2ccccc2)cc1`, for which the AC40 is 10.6 µM.

As to `C[C@@H]1CN([C@H](C)CO)C(=O)c2cc(NC(=O)Nc3cccc4ccccc34)ccc2O[C@@H]1CN(C)Cc1ccc(C(=O)Nc2ccccc2N)cc1`, the AC40 is 15.9 µM.

With `CC(C)=CCC/C(C)=C/CC/C(C)=C/CC/C(C)=C/CO`, the AC40 was 4.38 µM.

As to `Cc1noc(C)c1S(=O)(=O)Nc1ccc2c(c1)CC(=O)N([C@H](C)CO)C[C@@H](C)[C@@H](CN(C)Cc1ccc(-c3ccccc3)cc1)O2`, the AC40 was 13.9 µM. Still for that read-out and setting: in the case of `Cc1ccc(S(=O)(=O)Nc2ccc3c(c2)CC(=O)N([C@@H](C)CO)C[C@@H](C)[C@H](CN(C)Cc2ccc(-c4ccccc4)cc2)O3)cc1` it was 17.5 µM. In the case of `C[C@H]1CN([C@@H](C)CO)S(=O)(=O)c2ccc(C#Cc3ccc(F)cc3)cc2O[C@@H]1CN(C)S(=O)(=O)c1cn(C)cn1`, the AC40 was 18.9 µM. Still for that read-out and setting: in the case of `C[C@H](CO)N1C[C@H](C)[C@H](CN(C)CC2CCCCC2)Oc2ccc(NC(=O)CCCCCC(=O)Nc3ccccc3N)cc2CC1=O` it was 9.21 µM; in that of `C[C@@H]1CN([C@H](C)CO)C(=O)c2cccc(NC(=O)Nc3ccc4c(c3)OCO4)c2O[C@H]1CN(C)Cc1ccc(C(=O)Nc2ccccc2N)cc1`, 14.7 µM; in that of `C[C@@H]1CN([C@@H](C)CO)C(=O)c2cccc(NC(=O)Nc3ccc4c(c3)OCO4)c2O[C@H]1CN(C)Cc1ccc(C(=O)Nc2ccccc2N)cc1`, 16.2 µM.

System in a further experiment: not listed separately
Described as above. The conditions noted are these: C2C12 myotubes + simvastatin, ATP luminescence, 48 h; at 18 µM (top of the series).
`C[C@H](CO)N1C[C@H](C)[C@H](CN(C)Cc2ccc3c(c2)OCO3)Oc2ccc(NC(=O)CCCCCC(=O)Nc3ccccc3N)cc2CC1=O`: the rescue activity was 27.2% (inactive).

The experiment is the same for the next values; noted with them: C2C12 myotubes + simvastatin, ATP luminescence, 48 h; at 19.5 µM (top of the series).
Turning to `CN1C(=O)c2cc(NC(=O)c3ccc(F)c(F)c3)ccc2OC[C@H]2O[C@@H](CC(=O)Nc3ccc4c(c3)COC4)CC[C@@H]21`, the rescue activity was 29.3% (inactive). The same measure, in the same setting: then `N#C[C@@H]1[C@H](c2ccc(-c3cccc(F)c3)cc2)[C@H](CO)N1C(=O)NC1CCCC1`, with -9.1% (inactive); and `C/C=C/c1ccc([C@H]2[C@@H](CO)N(C(=O)NC3CCCC3)[C@H]2C#N)cc1`, with 5.47% (inactive).

Take `C[C@@H]1CN([C@H](C)CO)C(=O)Cc2cc(NC(=O)CCCCCC(=O)Nc3ccccc3N)ccc2O[C@H]1CN(C)Cc1ccc(Oc2ccccc2)cc1`: the rescue activity was 30.8% (inactive). Still for that read-out and setting: in the case of `C[C@H]1CN([C@@H](C)CO)C(=O)c2cc(C#Cc3ccncc3)cnc2O[C@@H]1CN(C)CC1CCCC1` it was 20.2% (inactive). `N#C[C@H]1[C@H](c2ccc(-c3cccc(F)c3)cc2)[C@H](CO)N1C(=O)NC1CCCC1`: the rescue activity is 29.9% (inactive).

Turning to `Cc1ccc(S(=O)(=O)N(C)C[C@@H]2Oc3ccc(NS(=O)(=O)c4ccc(Cl)cc4)cc3C(=O)N([C@H](C)CO)C[C@@H]2C)cc1`, the rescue activity is 27.2% (inactive). `CCCNC(=O)N1[C@H](C#N)[C@@H](c2ccc(C3=CCCCC3)cc2)[C@@H]1CO`: the rescue activity was 37.4% (inactive). Still for that read-out and setting: then `C[C@@H]1CN([C@@H](C)CO)C(=O)c2cc(NC(=O)Cc3cn(C)c4ccccc34)ccc2O[C@H]1CN(C)Cc1ccc(C(=O)Nc2ccccc2N)cc1`, with 29.3% (inactive). For `O=C(C[C@H]1CC[C@@H]2[C@H](COC[C@H](O)CN2CCC(F)(F)F)O1)NCc1ccc(Oc2ccccc2)cc1`, the rescue activity was 23.4% (inactive). The same measure, in the same setting: in the case of `N#C[C@H]1[C@H](c2ccc(C#CCC3CCCC3)cc2)[C@@H](CO)N1C(=O)CN1CCOCC1` it was 28.6% (inactive); in that of `COc1ccc(C#Cc2cnc3c(c2)C(=O)N([C@H](C)CO)C[C@H](C)[C@H](CN(C)Cc2ccccc2)O3)cc1OC`, 32.2% (inactive); in that of `CCCC#Cc1ccc([C@H]2[C@@H](C#N)N(S(=O)(=O)c3cccc(F)c3)[C@H]2CO)cc1`, 3.48% (inactive). The same measure, in the same setting: in the case of `C[C@H](CO)N1C[C@H](C)[C@H](CN(C)Cc2ccc(C(=O)Nc3ccccc3N)cc2)Oc2ccc(NC(=O)Nc3ccc(F)cc3)cc2CC1=O` it was -62.1% (inactive). `N#C[C@@H]1[C@H](c2ccc(-c3cccc(F)c3)cc2)[C@@H](CO)N1C(=O)NC1CCCC1`: the rescue activity was -10.7% (inactive). As to `N#C[C@H]1[C@H](c2ccc(-c3cccc(F)c3)cc2)[C@@H](CO)N1C(=O)NC1CCCC1`, the rescue activity was 33.1% (inactive). Regarding `N#C[C@@H]1[C@@H](c2ccccc2-c2ccc(F)cc2)[C@H](CO)N1C(=O)NC1CCCC1`, the rescue activity is 35.5% (inactive). As to `C[C@@H]1CN([C@H](C)CO)C(=O)Cc2cc(NC(=O)C3CCCCC3)ccc2O[C@H]1CN(C)Cc1ccc(Cl)c(Cl)c1`, the rescue activity was 24.8% (inactive). On the same count and under the same terms, then `N#C[C@@H]1[C@@H](c2ccc(C#Cc3cccnc3)cc2)[C@@H](CO)N1C(=O)C1CCCC1`, with -15.7% (inactive).

For the compound `C[C@H](CO)N1C[C@H](C)[C@@H](CN(C)Cc2ccc(Oc3ccccc3)cc2)Oc2c(NC(=O)Nc3cccc4ccccc34)cccc2C1=O`, the rescue activity was 26.8% (inactive). Still for that read-out and setting: then `O=C(C[C@H]1CC[C@@H]2[C@H](COC[C@@H](O)CN2Cc2ccc(Oc3ccccc3)cc2)O1)N1CCCCC1`, with 22.2% (inactive); and `N#C[C@H]1[C@H](c2ccc(C#Cc3ccc(F)cc3)cc2)[C@H](CO)N1c1nc(-c2ccccc2)cs1`, with 38.1% (inactive).

`C[C@H]1CN([C@@H](C)CO)C(=O)c2cc(N(C)C)ccc2O[C@@H]1CN(C)Cc1ccc(C(=O)Nc2ccccc2N)cc1`: the rescue activity was 28.1% (inactive). For the compound `N#C[C@@H]1[C@@H](c2ccc(-c3cccc(F)c3)cc2)[C@H](CO)N1C(=O)c1cccnc1`, the rescue activity was 7.76% (inactive). Same read-out and setting: then `N#C[C@@H]1[C@@H](c2ccc(C3=CCCCC3)cc2)[C@H](CO)N1C(=O)NC1CCCC1`, with 33.7% (inactive). Take `N#C[C@H]1[C@@H](c2ccc(-c3cccc(F)c3)cc2)[C@@H](CO)N1C(=O)NC1CCCC1`: the rescue activity is 5.12% (inactive).

On to `C[C@@H]1CN([C@H](C)CO)C(=O)Cc2cc(NS(=O)(=O)c3cn(C)cn3)ccc2O[C@@H]1CN(C)Cc1ccc(Cl)c(Cl)c1`, for which the rescue activity was 34.3% (inactive). As for `N#C[C@@H]1[C@@H](c2ccc(-c3cccc(F)c3)cc2)[C@@H](CO)N1C(=O)NC1CCCC1`, the rescue activity is 9.41% (inactive). Still for that read-out and setting: then `CCCNC(=O)N1[C@H](CO)[C@H](c2ccccc2)[C@@H]1C#N`, with -1.71% (inactive). For `N#C[C@@H]1[C@@H](c2ccc(-c3ccc(F)cc3)cc2)[C@H](CO)N1C(=O)Cc1ccccc1`, the rescue activity is 37.6% (inactive). In the case of `N#C[C@H]1[C@@H](c2ccc(-c3cccc(F)c3)cc2)[C@H](CO)N1C(=O)NC1CCCC1`, the rescue activity is -7.45% (inactive). On to `N#C[C@@H]1[C@@H](c2ccccc2-c2cccc(F)c2)[C@H](CO)N1C(=O)NC1CCCC1`, for which the rescue activity was 35.9% (inactive). For `CN(C)C(=O)c1cccc(-c2ccc([C@@H]3[C@@H](C#N)N(C(=O)C4CCCC4)[C@@H]3CO)cc2)c1`, the rescue activity is 11.9% (inactive).

As for `COc1ccc(S(=O)(=O)N(C)C[C@H]2Oc3c(NC(=O)Nc4ccccc4)cccc3C(=O)N([C@H](C)CO)C[C@H]2C)cc1`, the rescue activity was 29.2% (inactive).

In the case of `C[C@@H]1CN([C@H](C)CO)C(=O)Cc2cc(NC(=O)CCCCCC(=O)Nc3ccccc3N)ccc2O[C@@H]1CN(C)Cc1ccc(Oc2ccccc2)cc1`, the rescue activity was -50.8% (inactive). Still for that read-out and setting: then `C[C@H]1CN([C@@H](C)CO)S(=O)(=O)c2ccc(C#CC3CC3)cc2O[C@H]1CN(C)C(=O)Nc1cc(F)ccc1F`, with 23.2% (inactive). The same measure, in the same setting: in the case of `C[C@@H]1CN([C@H](C)CO)C(=O)c2cccc(NC(=O)c3nc4ccccc4s3)c2O[C@@H]1CN(C)Cc1ccc(C(=O)Nc2ccccc2N)cc1` it was -3.35% (inactive); in that of `C[C@H](CO)N1C[C@H](C)[C@H](CN(C)Cc2ccc(C(=O)Nc3ccccc3N)cc2)Oc2ccc(N(C)C)cc2C1=O`, 6.09% (inactive). On the same count and under the same terms, in the case of `COc1ccc(-c2ccc([C@@H]3[C@@H](C#N)N(C(=O)NC4CCCC4)[C@H]3CO)cc2)cc1` it was 12.8% (inactive).

The same experiment, now with this note: C2C12 myotubes + simvastatin, ATP luminescence, 48 h; at 21 µM (top of the series).
Take `CCS(=O)(=O)N1[C@H](C#N)[C@@H](c2ccc(-c3cccc(F)c3)cc2)[C@@H]1CO`: the rescue activity is 10.1% (inactive). Take `COCC(=O)N1[C@H](C#N)[C@@H](c2ccc(-c3cccc(F)c3)cc2)[C@@H]1CO`: the rescue activity is 7.78% (inactive). Still for that read-out and setting: in the case of `C[C@H]1CN([C@@H](C)CO)C(=O)Cc2cc(NC(=O)CCCCCC(=O)Nc3ccccc3N)ccc2O[C@@H]1CN(C)Cc1ccc(Oc2ccccc2)cc1` it was 20% (inactive); in that of `C[C@@H]1CN([C@@H](C)CO)C(=O)Cc2cc(NC(=O)CCCCCC(=O)Nc3ccccc3N)ccc2O[C@@H]1CN(C)Cc1ccc(Oc2ccccc2)cc1`, -22.1% (inactive). On the same count and under the same terms, in the case of `CC(C)CC#Cc1cnc2c(c1)C(=O)N([C@H](C)CO)C[C@H](C)[C@@H](CN(C)C(=O)Cc1ccccc1)O2` it was -0.381% (inactive); in that of `C[C@H](CO)N1C[C@H](C)[C@H](CN(C)Cc2ccc(Oc3ccccc3)cc2)Oc2ccc(NC(=O)CCCCCC(=O)Nc3ccccc3N)cc2CC1=O`, -22.7% (inactive); in that of `N#C[C@H]1N[C@@H](CO)[C@@H]1c1ccc(-c2cccc(F)c2)cc1`, 0.836% (inactive). On the same count and under the same terms, in the case of `CCCNC(=O)N1[C@@H](C#N)[C@@H](c2ccc(-c3ccccc3F)cc2)[C@@H]1CO` it was -7.41% (inactive); in that of `C[C@H]1CN([C@@H](C)CO)C(=O)Cc2cc(NC(=O)CCCCCC(=O)Nc3ccccc3N)ccc2O[C@H]1CN(C)Cc1ccc(C(F)(F)F)cc1`, 44.5% (inactive).

With `C[C@H]1CN([C@@H](C)CO)C(=O)Cc2cc(NS(=O)(=O)c3ccc(Cl)cc3)ccc2O[C@@H]1CN(C)CC1CCCCC1`, the rescue activity was 3.09% (inactive).
